Test system: plants
Assay: Test D pre-emergence, other plants of Tables D1 and D3
Type: in vivo
Conditions: pre-emergence, 100=total damage, 0=no damage
Summary of the method: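 Damage was rated visually from 0 (none) to 100 (total), at 20 DAA for pre-emergence and 15 d for post-emergence. Plants grew from safener-treated seed in a glasshouse at 24/18° C. or 20/16° C. day/night, 65% humidity, watered twice daily.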

CN1CC(c2cc(C(F)(F)F)n(C)n2)C(C(=O)Nc2cccc(F)c2C(F)(F)F)C1=O (racemic) [Compound 19]
damage to plant, ALOMY (rate 15, 20 DAA): 0
damage to plant, AVEFA (rate 15, 20 DAA): 0
damage to plant, BEAVA (rate 15, 20 DAA): 0
damage to plant, BROTE (rate 15, 20 DAA): 0
damage to plant, BRSNN (rate 15, 20 DAA): 0
damage to plant, CHEAL (rate 15, 20 DAA): 0
damage to plant, GALAP (rate 15, 20 DAA): 0
damage to plant, HORVW (rate 15, 20 DAA): 0
damage to plant, KCHSC (rate 15, 20 DAA): 0
damage to plant, LOLPE (rate 15, 20 DAA): 0
damage to plant, POAAN (rate 15, 20 DAA): 0
damage to plant, POLCO (rate 15, 20 DAA): 0
damage to plant, SINAR (rate 15, 20 DAA): 0
damage to plant, STEME (rate 15, 20 DAA): 0
damage to plant, VERPE (rate 15, 20 DAA): 0
damage to plant, ALOMY (rate 30, 20 DAA): 0
damage to plant, AVEFA (rate 30, 20 DAA): 0
damage to plant, BEAVA (rate 30, 20 DAA): 0
damage to plant, BROTE (rate 30, 20 DAA): 0
damage to plant, BRSNN (rate 30, 20 DAA): 0
damage to plant, CHEAL (rate 30, 20 DAA): 0
damage to plant, GALAP (rate 30, 20 DAA): 0
damage to plant, HORVW (rate 30, 20 DAA): 0
damage to plant, KCHSC (rate 30, 20 DAA): 0
damage to plant, LOLPE (rate 30, 20 DAA): 0
damage to plant, POAAN (rate 30, 20 DAA): 0
damage to plant, POLCO (rate 30, 20 DAA): 0
damage to plant, SINAR (rate 30, 20 DAA): 0
damage to plant, STEME (rate 30, 20 DAA): 0
damage to plant, VERPE (rate 30, 20 DAA): 0
damage to plant, ALOMY (rate 60, 20 DAA): 0
damage to plant, AVEFA (rate 60, 20 DAA): 0
damage to plant, BEAVA (rate 60, 20 DAA): 0
damage to plant, BROTE (rate 60, 20 DAA): 0
damage to plant, BRSNN (rate 60, 20 DAA): 0
damage to plant, CHEAL (rate 60, 20 DAA): 0
damage to plant, GALAP (rate 60, 20 DAA): 0
damage to plant, HORVW (rate 60, 20 DAA): 0
damage to plant, KCHSC (rate 60, 20 DAA): 0
damage to plant, LOLPE (rate 60, 20 DAA): 0
damage to plant, POAAN (rate 60, 20 DAA): 10
damage to plant, POLCO (rate 60, 20 DAA): 0
damage to plant, SINAR (rate 60, 20 DAA): 0
damage to plant, STEME (rate 60, 20 DAA): 0
damage to plant, VERPE (rate 60, 20 DAA): 0
damage to plant, ALOMY (rate 130, 20 DAA): 0
damage to plant, AVEFA (rate 130, 20 DAA): 0
damage to plant, BEAVA (rate 130, 20 DAA): 0
damage to plant, BROTE (rate 130, 20 DAA): 0
damage to plant, BRSNN (rate 130, 20 DAA): 0
damage to plant, CHEAL (rate 130, 20 DAA): 0
damage to plant, GALAP (rate 130, 20 DAA): 0
damage to plant, HORVW (rate 130, 20 DAA): 0
damage to plant, KCHSC (rate 130, 20 DAA): 0
damage to plant, LOLPE (rate 130, 20 DAA): 0
damage to plant, POAAN (rate 130, 20 DAA): 20
damage to plant, POLCO (rate 130, 20 DAA): 0
damage to plant, SINAR (rate 130, 20 DAA): 0
damage to plant, STEME (rate 130, 20 DAA): 0
damage to plant, VERPE (rate 130, 20 DAA): 0
damage to plant, ALOMY (rate 250, 20 DAA): 20
damage to plant, AVEFA (rate 250, 20 DAA): 10
damage to plant, BEAVA (rate 250, 20 DAA): 0
damage to plant, BROTE (rate 250, 20 DAA): 10
damage to plant, BRSNN (rate 250, 20 DAA): 0
damage to plant, CHEAL (rate 250, 20 DAA): 10
damage to plant, GALAP (rate 250, 20 DAA): 0
damage to plant, HORVW (rate 250, 20 DAA): 0
damage to plant, KCHSC (rate 250, 20 DAA): 0
damage to plant, LOLPE (rate 250, 20 DAA): 30
damage to plant, POAAN (rate 250, 20 DAA): 80
damage to plant, POLCO (rate 250, 20 DAA): 0
damage to plant, SINAR (rate 250, 20 DAA): 0
damage to plant, STEME (rate 250, 20 DAA): 10
damage to plant, VERPE (rate 250, 20 DAA): 60
damage to plant, ALOMY (rate 500, 20 DAA): 70
damage to plant, AVEFA (rate 500, 20 DAA): 70
damage to plant, BEAVA (rate 500, 20 DAA): 0
damage to plant, BROTE (rate 500, 20 DAA): 30
damage to plant, BRSNN (rate 500, 20 DAA): 20
damage to plant, CHEAL (rate 500, 20 DAA): 20
damage to plant, GALAP (rate 500, 20 DAA): 0
damage to plant, HORVW (rate 500, 20 DAA): 20
damage to plant, KCHSC (rate 500, 20 DAA): 0
damage to plant, LOLPE (rate 500, 20 DAA): 80
damage to plant, POAAN (rate 500, 20 DAA): 80
damage to plant, POLCO (rate 500, 20 DAA): 10
damage to plant, SINAR (rate 500, 20 DAA): 0
damage to plant, STEME (rate 500, 20 DAA): 60
damage to plant, VERPE (rate 500, 20 DAA): 70

— patent publication US20220281848A1, “PYRAZOLE-SUBSTITUTED PYRROLIDINONES AS HERBICIDES” (FMC Corporation, priority 2019, published 2022)
